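Cells were grown in 96-well plates and exposed to each compound for 48 hours at five concentrations; endpoints were interpolated linearly between bracketing concentrations, or set to the highest concentration if not reached. TGI marks complete inhibition of growth.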
How the values were obtained:
Assay in all cases: NCI-60 cell line screen, 48 h
[1] = system: 786-0 renal
[2] = system: A549 NSCLC
[3] = system: ACHN renal
[4] = system: BT-549 breast
[5] = system: CCRF-CEM leukemia
[6] = system: COLO 205 colon
[7] = system: DLD-1 colon
[8] = system: DU-145 prostate
[9] = system: EKVX NSCLC
[10] = system: HCC-2998 colon
[11] = system: HCT-116 colon
[12] = system: HCT-15 colon
[13] = system: HL-60(TB) leukemia
[14] = system: HOP-18 NSCLC
[15] = system: HOP-62 NSCLC
[16] = system: HOP-92 NSCLC
[17] = system: HS 578T breast
[18] = system: HT29 colon
[19] = system: IGROV1 ovarian
[20] = system: K-562 leukemia
[21] = system: KM12 colon
[22] = system: LXFL 529 NSCLC
[23] = system: M14 melanoma
[24] = system: M19-MEL melanoma
[25] = system: MALME-3M melanoma
[26] = system: MCF7 breast
[27] = system: MDA-MB-231 breast
[28] = system: MDA-MB-435
[29] = system: MDA-N
[30] = system: MOLT-4 leukemia
[31] = system: NCI-H226 lung
[32] = system: NCI-H23 lung
[33] = system: NCI-H460 lung
[34] = system: NCI-H522 lung
[35] = system: NCI/ADR-RES ovarian
[36] = system: OVCAR-3 ovarian
[37] = system: OVCAR-4 ovarian
[38] = system: OVCAR-5 ovarian
[39] = system: OVCAR-8 ovarian
[40] = system: PC-3 prostate
[41] = system: RPMI-8226 leukemia
[42] = system: SF-268 CNS
[43] = system: SF-295 CNS
[44] = system: SF-539 CNS
[45] = system: SK-MEL-2 melanoma
[46] = system: SK-MEL-28 melanoma
[47] = system: SK-MEL-5 melanoma
[48] = system: SK-OV-3 ovarian
[49] = system: SN12C renal
[50] = system: SNB-19 CNS
[51] = system: SNB-75 CNS
[52] = system: SR leukemia
[53] = system: SW-620 colon
[54] = system: T-47D breast
[55] = system: TK-10 renal
[56] = system: U251 CNS
[57] = system: UACC-257 melanoma
[58] = system: UACC-62 melanoma
[59] = system: UO-31 renal
[60] = system: A498 renal
[61] = system: CAKI-1 renal
[62] = system: LOX IMVI melanoma
[63] = system: RXF 393 renal

## CC(=O)Nc1ccc(C(=O)NN2C(=O)C(Cl)C2c2cc(Br)ccc2O)cc1 (configuration not stated)
[1]
  TGI: > 100 µM
[2]
  TGI: > 100 µM
[3]
  TGI: > 100 µM
[4]
  TGI: > 100 µM
[5]
  TGI: > 100 µM
[6]
  TGI: > 100 µM
[7]
  TGI: > 100 µM
[8]
  TGI: > 100 µM
[9]
  TGI: > 100 µM
[10]
  TGI: > 100 µM
[11]
  TGI: > 100 µM
[12]
  TGI: > 100 µM
[13]
  TGI: > 54.2 µM
[14]
  TGI: 62 µM
[15]
  TGI: > 100 µM
[16]
  TGI: > 100 µM
[17]
  TGI: > 100 µM
[18]
  TGI: > 100 µM
[19]
  TGI: > 100 µM
[20]
  TGI: > 100 µM
[21]
  TGI: > 100 µM
[22]
  TGI: > 100 µM
[23]
  TGI: 45.5 µM
[24]
  TGI: 33.7 µM
[25]
  TGI: > 100 µM
[26]
  TGI: > 100 µM
[27]
  TGI: > 100 µM
[28]
  TGI: > 100 µM
[29]
  TGI: > 100 µM
[30]
  TGI: > 100 µM
[31]
  TGI: 36.1 µM
[32]
  TGI: > 100 µM
[33]
  TGI: > 48.5 µM
[34]
  TGI: > 100 µM
[35]
  TGI: > 100 µM
[36]
  TGI: > 100 µM
[37]
  TGI: > 100 µM
[38]
  TGI: > 100 µM
[39]
  TGI: > 100 µM
[40]
  TGI: > 100 µM
[41]
  TGI: > 100 µM
[42]
  TGI: > 100 µM
[43]
  TGI: > 100 µM
[44]
  TGI: > 91.9 µM
[45]
  TGI: > 100 µM
[46]
  TGI: > 100 µM
[47]
  TGI: > 100 µM
[48]
  TGI: > 100 µM
[49]
  TGI: > 100 µM
[50]
  TGI: > 100 µM
[51]
  TGI: > 100 µM
[52]
  TGI: > 100 µM
[53]
  TGI: > 100 µM
[54]
  TGI: > 100 µM
[55]
  TGI: > 100 µM
[56]
  TGI: > 100 µM
[57]
  TGI: > 100 µM
[58]
  TGI: > 100 µM
[59]
  TGI: 32.3 µM

## NC1CC(=O)c2c(Cl)sc(Cl)c21 (configuration not stated)
[1]
  TGI: 2.87 µM
[60]
  TGI: 31.1 µM
[2]
  TGI: 35.3 µM
[3]
  TGI: 6.14 µM
[4]
  TGI: 10.7 µM
[61]
  TGI: 6.1 µM
[5]
  TGI: 2.94 µM
[6]
  TGI: 2.57 µM
[8]
  TGI: 16 µM
[9]
  TGI: 5.07 µM
[10]
  TGI: 22.7 µM
[11]
  TGI: 4.49 µM
[12]
  TGI: 3.94 µM
[13]
  TGI: 6.09 µM
[15]
  TGI: 34 µM
[16]
  TGI: 2.91 µM
[17]
  TGI: 70.4 µM
[18]
  TGI: 14.1 µM
[19]
  TGI: 9.84 µM
[20]
  TGI: 75 µM
[21]
  TGI: 12.8 µM
[62]
  TGI: 4.81 µM
[23]
  TGI: 35.4 µM
[25]
  TGI: 4.66 µM
[26]
  TGI: 7.9 µM
[27]
  TGI: 6.39 µM
[28]
  TGI: 15.5 µM
[29]
  TGI: 16.4 µM
[30]
  TGI: 9.37 µM
[31]
  TGI: 30.9 µM
[32]
  TGI: 25 µM
[33]
  TGI: 33.7 µM
[34]
  TGI: 2.89 µM
[35]
  TGI: 49.9 µM
[36]
  TGI: 24 µM
[37]
  TGI: 16 µM
[38]
  TGI: 42.9 µM
[39]
  TGI: 20 µM
[40]
  TGI: 18 µM
[41]
  TGI: 7.76 µM
[63]
  TGI: 2.95 µM
[42]
  TGI: 67.4 µM
[43]
  TGI: 31.3 µM
[44]
  TGI: 8.85 µM
[45]
  TGI: 25 µM
[46]
  TGI: 4 µM
[47]
  TGI: 22.9 µM
[48]
  TGI: 26.4 µM
[49]
  TGI: 14.4 µM
[50]
  TGI: 42.2 µM
[51]
  TGI: 26.1 µM
[52]
  TGI: 1.99 µM
[53]
  TGI: 3.73 µM
[54]
  TGI: 4.96 µM
[55]
  TGI: 6.26 µM
[56]
  TGI: 21.5 µM
[57]
  TGI: 7.27 µM
[58]
  TGI: 7.78 µM
[59]
  TGI: 20.3 µM

## NS(=O)(=O)c1ccc(NNc2c3ccccc3nc3ccccc23)cc1
[1]
  TGI: 17.4 µM
[60]
  TGI: 53.9 µM
[2]
  TGI: 25.6 µM
[3]
  TGI: 19.9 µM
[4]
  TGI: 15.1 µM
[61]
  TGI: 18.9 µM
[5]
  TGI: 18.5 µM
[6]
  TGI: 13.9 µM
[8]
  TGI: 23.6 µM
[9]
  TGI: 21.1 µM
[10]
  TGI: 17.6 µM
[11]
  TGI: 15.5 µM
[12]
  TGI: 15.5 µM
[13]
  TGI: 19.9 µM
[15]
  TGI: 22.4 µM
[16]
  TGI: 23.4 µM
[17]
  TGI: 23.8 µM
[18]
  TGI: 13.6 µM
[19]
  TGI: 19.1 µM
[20]
  TGI: 19.9 µM
[21]
  TGI: 16.5 µM
[62]
  TGI: 14.5 µM
[23]
  TGI: 15.9 µM
[25]
  TGI: 15.9 µM
[26]
  TGI: 15.8 µM
[27]
  TGI: 25.9 µM
[28]
  TGI: 17 µM
[29]
  TGI: 17.5 µM
[30]
  TGI: 19.2 µM
[31]
  TGI: 18.8 µM
[32]
  TGI: 22.1 µM
[33]
  TGI: 21.3 µM
[34]
  TGI: 16.4 µM
[35]
  TGI: 24.5 µM
[36]
  TGI: 15 µM
[37]
  TGI: 17.2 µM
[38]
  TGI: 17.5 µM
[39]
  TGI: 16.6 µM
[40]
  TGI: 16.1 µM
[41]
  TGI: 21.6 µM
[63]
  TGI: 23 µM
[42]
  TGI: 17.7 µM
[43]
  TGI: 19.8 µM
[44]
  TGI: 17.2 µM
[45]
  TGI: 18.1 µM
[46]
  TGI: 17.1 µM
[47]
  TGI: 17.2 µM
[48]
  TGI: 24.5 µM
[49]
  TGI: 23.1 µM
[50]
  TGI: 25.7 µM
[51]
  TGI: 21.9 µM
[52]
  TGI: 21.4 µM
[53]
  TGI: 16.6 µM
[54]
  TGI: 20.4 µM
[55]
  TGI: 26.4 µM
[56]
  TGI: 16.3 µM
[57]
  TGI: 18 µM
[58]
  TGI: 17.2 µM
[59]
  TGI: 18.1 µM
